“Also recorded” adds a separate entry of the source.
System: P-Ser807/811 RB1, RB1, CDK4, β-actin in MCF7-CDK4-D99N CL1 cells
Test: Immunoblotting after Palbociclib, MCF7-CDK4-D99N CL1
Assay type: cell-based, human
Settings: homozygous mutant clone CL1 vs parental MCF7; 48 h
Protocol: Whole-cell lysates were prepared in RIPA buffer (Sigma-Aldrich), supplemented with protease and phosphatase inhibitor cocktails (Roche). Protein sample concentrations were determined using the Pierce BCA Protein Assay kit (ThermoFisher Scientific). In all, 10–20 µg of total protein was loaded for each sample and resolved on 4–15% Mini-PROTEAN TGX Precast Protein Gels (BIO-RAD). Immunoblotting was performed as described (Patel et al, [2018]), using antibodies diluted 1:1000 for P-CDK2 (Thr160; 2561S), CDK2 (2546S), P-Rb (Ser807/811; 9308), Rb (9309), CDK7 (2916) and CDK12 (11973S), from Cell Signalling Technology. PolII CTD phosphorylation antibodies (P-Ser2 (ab5095) and P-Ser5 (ab5131), used at 1:10,000 dilution), as well as total PolII (ab817; 1:2000 dilution) and β-actin (ab6276; 1:100,000 dilution) were purchased from Abcam. CCNK antibody (Thermofisher A301-939A) was used at a 1:1000 dilution. Band intensities were quantified using ImageJ (Schneider et al, [2012]).

CC(=O)c1c(C)c2cnc(Nc3ccc(N4CCNCC4)cn3)nc2n(C2CCCC2)c1=O [Palbociclib]
Reduction in RB1 phosphorylation Ser807/811: blunted; also recorded: less pronounced

Reference: paper PMC12528448, “Resistance to CDK7 inhibitors directed by acquired mutation of a conserved residue in cancer cells” (The EMBO Journal, 2025)
